Results: patent US12662489B2 (Sitryx Therapeutics Limited, priority 2023, dated 2026)

Tests used:
[1] = molecular target: T1, MTHFD2 recombinant human enzyme (Homo sapiens, UniProt P13995); experiment: MTHFD2 inhibition assay (NAD(P)H-Glo luminescence); settings: for MTHFD1/MTHFD2 IC50 ratio: selectivity of MTHFD2 inhibition over MTHFD1, band
T1 sequence (P13995 36-350): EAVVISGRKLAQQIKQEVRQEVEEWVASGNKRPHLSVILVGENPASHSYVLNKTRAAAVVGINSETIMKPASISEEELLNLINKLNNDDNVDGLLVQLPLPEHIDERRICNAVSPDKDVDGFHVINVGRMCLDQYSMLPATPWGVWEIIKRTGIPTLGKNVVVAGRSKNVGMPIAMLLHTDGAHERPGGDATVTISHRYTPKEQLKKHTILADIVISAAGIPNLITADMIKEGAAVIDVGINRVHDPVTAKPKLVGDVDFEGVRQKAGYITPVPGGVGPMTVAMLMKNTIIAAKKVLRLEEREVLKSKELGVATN

[2] = molecular target: T2, MTHFD1 recombinant human enzyme (Homo sapiens, UniProt P11586); experiment: MTHFD1 inhibition assay (NAD(P)H-Glo luminescence); settings: MTHFD1 IC50, recombinant human enzyme 200 nM, NADP, band
T2 sequence (P11586 2-291 limits assumed): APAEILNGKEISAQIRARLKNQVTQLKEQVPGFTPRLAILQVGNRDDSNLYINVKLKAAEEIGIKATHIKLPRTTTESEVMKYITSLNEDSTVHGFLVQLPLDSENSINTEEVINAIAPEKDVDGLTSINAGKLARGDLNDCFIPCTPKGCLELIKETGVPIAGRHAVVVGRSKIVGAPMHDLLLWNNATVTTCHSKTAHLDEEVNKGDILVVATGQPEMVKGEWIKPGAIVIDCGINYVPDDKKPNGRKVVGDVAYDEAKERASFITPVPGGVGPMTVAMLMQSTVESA

human CD4+ T cells = experiment: Human CD4+ T-cell proliferation assay (CFSE, CD3/28 beads); settings: read-out: Proliferation IC50

## COC[C@H]1CN(c2cc(C)c3c4c(c(=O)oc3c2C)CN(C(=O)c2cc(N(C)C)c(C(=O)NS(=O)(=O)N3CCC[C@H](OC)C3)cc2F)CC4)CCN1C [Example 281, 2-(dimethylamino)-5-fluoro-4-(8-((R)-3-(methoxymethyl)-4-methylpiperazin-1-yl)-7,10-dimethyl-5-oxo-1,3,4,5-tetrahydro-2H-chromeno[3,4-c]pyridine-3-carbonyl)-N-(((S)-3-methoxypiperidin-1-yl)sulfonyl)benzamide]
[1]
  IC50: 10 to 100 nM
  MTHFD1/MTHFD2 IC50 ratio: H (>9.0 to 30)
[2]
  IC50: 100 to 1000 nM
Human CD4+ T cells
  IC50: 1 to 10 nM

## CCc1cc(N2CCN(C)[C@@H](COC)C2)c(C)c2oc(=O)c3c(c12)CCN(C(=O)c1cc(N(C)C)c(C(=O)NS(=O)(=O)N2CCCC2)cc1F)C3 [Example 245, (R)-2-(dimethylamino)-4-(10-ethyl-8-(3-(methoxymethyl)-4-methylpiperazin-1-yl)-7-methyl-5-oxo-1,3,4,5-tetrahydro-2H-chromeno[3,4-c]pyridine-3-carbonyl)-5-fluoro-N-(pyrrolidin-1-ylsulfonyl)benzamide]
[1]
  IC50: 1 to 10 nM
  MTHFD1/MTHFD2 IC50 ratio: J (>30)
[2]
  IC50: 1000 to 5000 nM
Human CD4+ T cells
  IC50: 30 to 100 nM

## COC[C@H]1CN(c2cc(C)c3c4c(c(=O)oc3c2C)CN(C(=O)c2ccc(C(=O)NS(=O)(=O)N3CCCC3)c(OC(F)F)c2F)CC4)CCN1C [Example 171, (R)-2-(difluoromethoxy)-3-fluoro-4-(8-(3-(methoxymethyl)-4-methylpiperazin-1-yl)-7,10-dimethyl-5-oxo-1,3,4,5-tetrahydro-2H-chromeno[3,4-c]pyridine-3-carbonyl)-N-(pyrrolidin-1-ylsulfonyl)benzamide]
[1]
  IC50: 10 to 100 nM
  MTHFD1/MTHFD2 IC50 ratio: G (^ 3 to 9.0)
[2]
  IC50: 100 to 1000 nM
Human CD4+ T cells
  IC50: 100 to 1000 nM

## [2H]C([2H])([2H])Oc1cc(C(=O)N2CCc3c(c(=O)oc4c(C)c(N5CCN(C)[C@@H](COC)C5)cc(C)c34)C2)c(F)cc1C(=O)NS(=O)(=O)N1C2CCC1CC2 [Example 250, (R)-N-((7-azabicyclo[2.2.1]heptan-7-yl)sulfonyl)-5-fluoro-2-(methoxy-d3)-4-(8-(3-(methoxymethyl)-4-methylpiperazin-1-yl)-7,10-dimethyl-5-oxo-1,3,4,5-tetrahydro-2H-chromeno[3,4-c]pyridine-3-carbonyl)benzamide]
[1]
  IC50: 1 to 10 nM
  MTHFD1/MTHFD2 IC50 ratio: J (>30)
[2]
  IC50: 1000 to 5000 nM
Human CD4+ T cells
  IC50: 30 to 100 nM

## COC[C@H]1CN(c2cc(C)c3c4c(c(=O)oc3c2C)CN(C(=O)c2cc(N(C)C)c(C(=O)NS(=O)(=O)N3CCC[C@H]3C(F)(F)F)cc2F)CC4)CCN1C [Example 292, 2-(dimethylamino)-5-fluoro-4-(8-((R)-3-(methoxymethyl)-4-methylpiperazin-1-yl)-7,10-dimethyl-5-oxo-1,3,4,5-tetrahydro-2H-chromeno[3,4-c]pyridine-3-carbonyl)-N-(((S)-2-(trifluoromethyl)pyrrolidin-1-yl)sulfonyl)benzamide]
[1]
  IC50: 10 to 100 nM
  MTHFD1/MTHFD2 IC50 ratio: J (>30)
[2]
  IC50: 100 to 1000 nM
Human CD4+ T cells
  IC50: 1 to 10 nM

## COC[C@H]1CN(c2cc(C)c3c4c(c(=O)oc3c2C)CN(C(=O)c2ccc(C(=O)NS(=O)(=O)N3C[C@H]5CCC[C@H]5C3)cc2)CC4)CCN1C [Example 210, N-(((3aR,6a S)-hexahydrocyclopenta[c]pyrrol-2(1H)-yl)sulfonyl)-4-(8-((R)-3-(methoxymethyl)-4-methylpiperazin-1-yl)-7,10-dimethyl-5-oxo-1,3,4,5-tetrahydro-2H-chromeno[3,4-c]pyridine-3-carbonyl)benzamide]
[1]
  IC50: 10 to 100 nM
  MTHFD1/MTHFD2 IC50 ratio: J (>30)
[2]
  IC50: 1000 to 5000 nM
Human CD4+ T cells
  IC50: > 5000 nM

## CCOc1cc(C(=O)N2CCc3c(c(=O)oc4c(C)c(N5CCN(C)[C@@H](COC)C5)cc(C)c34)C2)c(F)cc1C(=O)NS(=O)(=O)N1CCCC1 [Example 202, (R)-2-ethoxy-5-fluoro-4-(8-(3-(methoxymethyl)-4-methylpiperazin-1-yl)-7,10-dimethyl-5-oxo-1,3,4,5-tetrahydro-2H-chromeno[3,4-c]pyridine-3-carbonyl)-N-(pyrrolidin-1-ylsulfonyl)benzamide]
[1]
  IC50: 10 to 100 nM
  MTHFD1/MTHFD2 IC50 ratio: H (>9.0 to 30)
[2]
  IC50: 100 to 1000 nM
Human CD4+ T cells
  IC50: 10 to 30 nM

## COC[C@H]1CN(c2cc(C)c3c4c(c(=O)oc3c2C)CN(C(=O)c2cc(OC3CC3)c(C(=O)NS(=O)(=O)N3C5CCC3CC5)cc2F)CC4)CCN1C [Example 331, (R)-N-((7-azabicyclo[2.2.1]heptan-7-yl)sulfonyl)-2-cyclopropoxy-5-fluoro-4-(8-(3-(methoxymethyl)-4-methylpiperazin-1-yl)-7,10-dimethyl-5-oxo-1,3,4,5-tetrahydro-2H-chromeno[3,4-c]pyridine-3-carbonyl)benzamide]
[1]
  IC50: 1 to 10 nM
  MTHFD1/MTHFD2 IC50 ratio: J (>30)
[2]
  IC50: 100 to 1000 nM
Human CD4+ T cells
  IC50: 30 to 100 nM

## COC[C@H]1CN(c2cc(C)c3c4c(c(=O)oc3c2C)CN(C(=O)c2cc(OC)c(C(=O)NS(=O)(=O)N3C5CCC3CC5)cc2F)CC4)CCN1C [Example 248, (R)-N-((7-azabicyclo[2.2.1]heptan-7-yl)sulfonyl)-5-fluoro-2-methoxy-4-(8-(3-(methoxymethyl)-4-methylpiperazin-1-yl)-7,10-dimethyl-5-oxo-1,3,4,5-tetrahydro-2H-chromeno[3,4-c]pyridine-3-carbonyl)benzamide]
[1]
  IC50: 1 to 10 nM
  MTHFD1/MTHFD2 IC50 ratio: J (>30)
[2]
  IC50: 100 to 1000 nM
Human CD4+ T cells
  IC50: 30 to 100 nM

## COC[C@H]1CN(c2cc(Cl)c3c4c(c(=O)oc3c2C)CN(C(=O)c2cc(F)c(C(=O)NS(=O)(=O)N3CCCC3)cc2C)CC4)CCN1C [Example 310, (R)-4-(10-chloro-8-(3-(methoxymethyl)-4-methylpiperazin-1-yl)-7-methyl-5-oxo-1,3,4,5-tetrahydro-2H-chromeno[3,4-c]pyridine-3-carbonyl)-2-fluoro-5-methyl-N-(pyrrolidin-1-ylsulfonyl)benzamide]
[1]
  IC50: 10 to 100 nM
  MTHFD1/MTHFD2 IC50 ratio: J (>30)
[2]
  IC50: 1000 to 5000 nM
Human CD4+ T cells
  IC50: 30 to 100 nM

## [2H]C([2H])([2H])Oc1cc(C(=O)N2CCc3c(c(=O)oc4c(C)c(N5CCN(C)[C@@H](COC)C5)cc(C)c34)C2)c(Cl)cc1C(=O)NS(=O)(=O)N1CCCC1 [Example 328, (R)-5-chloro-2-(methoxy-d3)-4-(8-(3-(methoxymethyl)-4-methylpiperazin-1-yl)-7,10-dimethyl-5-oxo-1,3,4,5-tetrahydro-2H-chromeno[3,4-c]pyridine-3-carbonyl)-N-(pyrrolidin-1-ylsulfonyl)benzamide]
[1]
  IC50: 10 to 100 nM
  MTHFD1/MTHFD2 IC50 ratio: J (>30)
[2]
  IC50: 1000 to 5000 nM
Human CD4+ T cells
  IC50: 100 to 1000 nM

## COC[C@H]1CN(c2cc(C)c3c4c(c(=O)oc3c2C)CN(C(=O)c2ccc(C(=O)NS(=O)(=O)N3CC5CCCCC5C3)cc2)CC4)CCN1C (stereo partly drawn) [Example 211, 4-(8-((R)-3-(methoxymethyl)-4-methylpiperazin-1-yl)-7,10-dimethyl-5-oxo-1,3,4,5-tetrahydro-2H-chromeno[3,4-c]pyridine-3-carbonyl)-N-((octahydro-2H-isoindol-2-yl)sulfonyl)benzamide]
[1]
  IC50: 10 to 100 nM
  MTHFD1/MTHFD2 IC50 ratio: H (>9.0 to 30)
[2]
  IC50: 1000 to 5000 nM
Human CD4+ T cells
  IC50: 1000 to 5000 nM

## COC[C@H]1CN(c2cc(C)c3c4c(c(=O)oc3c2C)CN(C(=O)c2cc(OC3CCCC3)c(C(=O)NS(=O)(=O)N3CCCC3)c(C(F)(F)F)c2)CC4)CCN1C [Example 129, (R)-2-(cyclopentyloxy)-4-(8-(3-(methoxymethyl)-4-methylpiperazin-1-yl)-7,10-dimethyl-5-oxo-1,3,4,5-tetrahydro-2H-chromeno[3,4-c]pyridine-3-carbonyl)-N-(pyrrolidin-1-ylsulfonyl)-6-(trifluoromethyl)benzamide]
[1]
  IC50: 10 to 100 nM
  MTHFD1/MTHFD2 IC50 ratio: J (>30)
[2]
  IC50: 1000 to 5000 nM
Human CD4+ T cells
  IC50: 100 to 1000 nM

## COC[C@H]1CN(c2cc(C)c3c4c(c(=O)oc3c2C)CN(C(=O)c2cc(OC)c(C(=O)NS(=O)(=O)N3CCCC3)cc2Cl)CC4)CCN1C [Example 329, (R)-5-chloro-2-methoxy-4-(8-(3-(methoxymethyl)-4-methylpiperazin-1-yl)-7,10-dimethyl-5-oxo-1,3,4,5-tetrahydro-2H-chromeno[3,4-c]pyridine-3-carbonyl)-N-(pyrrolidin-1-ylsulfonyl)benzamide]
[1]
  IC50: 1 to 10 nM
  MTHFD1/MTHFD2 IC50 ratio: J (>30)
[2]
  IC50: 1000 to 5000 nM
Human CD4+ T cells
  IC50: 100 to 1000 nM

## COC[C@H]1CN(c2cc(C)c3c4c(c(=O)oc3c2C)CN(C(=O)c2ccc(C(=O)NS(=O)(=O)N3CCCC3)cc2)CC4)CCN1C [Example 195, (R)-4-(8-(3-(methoxymethyl)-4-methylpiperazin-1-yl)-7,10-dimethyl-5-oxo-1,3,4,5-tetrahydro-2H-chromeno[3,4-c]pyridine-3-carbonyl)-N-(pyrrolidin-1-ylsulfonyl)benzamide]
[1]
  IC50: 10 to 100 nM
  MTHFD1/MTHFD2 IC50 ratio: J (>30)
[2]
  IC50: 1000 to 5000 nM
Human CD4+ T cells
  IC50: 1000 to 5000 nM
